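Values below derive from 48-hour exposures of cells grown in 96-well plates, with endpoints linearly interpolated between the two concentrations bracketing the appropriate inhibition level. At the GI50, growth is halved. Definition used: TGI = concentration required for complete inhibition of growth.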
Tests used:
Assay in all cases: NCI-60 cell line screen, 48 h
[1] = tested on: RPMI-8226 leukemia
[2] = tested on: SK-MEL-5 melanoma
[3] = tested on: KM12 colon
[4] = tested on: OVCAR-4 ovarian
[5] = tested on: U251 CNS
[6] = tested on: OVCAR-8 ovarian
[7] = tested on: HS 578T breast
[8] = tested on: CAKI-1 renal
[9] = tested on: IGROV1 ovarian
[10] = tested on: T-47D breast

| SMILES | GI50 [1] [nM] | TGI [1] [µM] | GI50 [2] [nM] | TGI [2] [µM] | GI50 [3] [nM] | TGI [3] [µM] | GI50 [4] [nM] | TGI [4] [µM] | GI50 [5] [nM] | TGI [5] [µM] | GI50 [6] [nM] | TGI [6] [µM] | GI50 [7] [nM] | TGI [7] [µM] | GI50 [8] [nM] | TGI [8] [µM] | GI50 [9] [nM] | TGI [9] [µM] | GI50 [10] [nM] | TGI [10] [µM] |
| --- | --- | --- | --- | --- | --- | --- | --- | --- | --- | --- | --- | --- | --- | --- | --- | --- | --- | --- | --- | --- |
| CN(C)CCCn1c(=O)c2ccccc2c2cnc3[nH]ccc3c21 | 2230 | 7.3 | 1770 | 3.51 | 1630 | 9.78 | 1920 | 8.63 | 2120 | 7.21 | 1430 | 6.88 | 2530 | 11.2 | 1940 | 4.66 | 2280 | 11.7 | 2500 | 7.42 |
| Nc1nc2c(C(=O)NCc3cccs3)nnn2c2cccc(Cl)c12 | – | > 100 | – | > 100 | – | > 100 | – | > 100 | – | > 100 | – | > 100 | – | > 100 | – | > 100 | – | > 100 | – | 50.7 |
| O=C1/C(=C/c2ccc(F)cc2)CN(C(=O)CCN2CCC(=NO)CC2)C/C1=C\c1ccc(F)cc1 | 707 | 2.13 | 1730 | 3.26 | 537 | 1.33 | 2340 | 5.14 | 630 | 2.09 | 1300 | 5.58 | 1710 | 6.51 | 1570 | 3.92 | 1430 | 3.42 | 2560 | 9.55 |
| Cc1cc(C)c(C#N)c(Sc2nc(C)c([N+](=O)[O-])c(C)c2C#N)n1 | 2840 | 8.16 | 4020 | 16.4 | 3980 | 19 | 2270 | 6.64 | 3100 | 10.8 | 3030 | 10.5 | 2440 | 8.51 | 2170 | 5.65 | 3300 | 12.3 | 2290 | 5.59 |
| O=C(O)/C(Cc1cn[nH]n1)=N\O | – | > 100 | – | > 100 | – | > 100 | – | > 100 | – | > 100 | – | > 100 | – | > 100 | – | > 100 | – | > 100 | – | > 100 |
| CCCCC#Cc1c(I)n(C)c(=O)[nH]c1=O | 2370 | 8.41 | 16400 | 30 | 16000 | 29.5 | 1760 | 3.15 | 2420 | 6.85 | 3360 | 10.1 | 2610 | 7.16 | – | 0.0843 | 1550 | 3.04 | 1700 | 6.96 |
| S=C1Cc2c(-c3ccc(Br)cc3)cc(-c3ccccc3)nc2-c2ccccc2N1 | – | 65.8 | – | 23.5 | – | > 42 | – | 1.43 | – | 2.58 | – | 3.02 | – | 3.84 | – | 3.65 | – | 2.94 | – | 7.03 |
| [N-]=[N+]=NCCCn1c2c(c3ccc([N+](=O)[O-])cc3c1=O)C(=O)c1cc(Br)ccc1-2 | > 100000 | > 100 | > 100000 | > 100 | > 100000 | > 100 | > 100000 | > 100 | 45800 | > 100 | > 100000 | > 100 | > 100000 | > 100 | 887 | > 100 | > 100000 | > 100 | > 100000 | > 100 |
| C1CN(c2nnc(N3CCC3)nn2)C1 | – | > 100 | – | 73.3 | – | > 100 | – | > 64.6 | – | > 92.6 | – | > 100 | – | > 92.9 | – | > 100 | – | > 100 | – | > 100 |
| O=C(NC(=O)c1c(Cl)nc2sccn12)Nc1ccc(Cl)cc1 | – | > 100 | – | > 100 | – | > 100 | – | > 100 | – | 55.9 | – | > 100 | – | 62.9 | – | > 100 | – | > 100 | – | > 100 |
| Cn1cc(C2=C(c3c[nH]c4ccccc34)C(=O)NC2=O)c2ccccc21 | 1570 | > 20.8 | 859 | 3.1 | 586 | > 25 | > 5060 | > 25 | 1360 | > 25 | 1510 | > 25 | 151 | > 25 | 523 | > 25 | 975 | > 25 | 846 | > 25 |
| CNCCCNc1nc2ccccc2c2c(=O)c3cc(OC)ccc3sc12 | 2220 | 5.16 | 1720 | 3.13 | 1830 | 3.52 | 1960 | 4.03 | 1810 | 3.71 | 2170 | 5.34 | 1940 | 4.77 | 1660 | 3.17 | 1550 | 3.03 | 2220 | 5.61 |
| C#Cc1cccc(Nc2nc(Cl)nc3cc(NC(=O)CCl)ccc23)c1 | 895 | 4.61 | 1040 | 3.36 | 1130 | 4.22 | 847 | 2.69 | 526 | 1.14 | 754 | 2.65 | 1430 | 9.17 | 1850 | 5.17 | 500 | 1.12 | 556 | 1.65 |
| CS(=O)(=O)OCCCNCCCOS(C)(=O)=O | – | 6780 | – | 3220 | – | 5510 | – | 5360 | – | 5460 | – | 6630 | – | 8170 | – | 4280 | – | 7300 | – | 6740 |
| COc1ccccc1S(=O)(=O)Nc1ccc2c3c(cc(CCC(=O)NCCCCNc4cccc5c4C(=O)N(C4CCC(=O)NC4=O)C5=O)cc13)C(=O)N2C (configuration not stated) | 625 | > 100 | 982 | 3.32 | 697 | > 100 | 259 | 1.44 | > 63400 | > 100 | 346 | > 100 | 186 | 1.1 | 2310 | > 100 | 140 | > 100 | 34.3 | – |
| CC(=O)N1CCN(CCNC(=O)n2cc(-c3ccncc3)c(-c3cc(O)cc(Cl)c3)n2)CC1 | 4690 | 23.4 | 3660 | 16.9 | 14000 | 34.4 | 27800 | > 100 | 10900 | 26.1 | 12200 | > 100 | 16700 | 53.4 | 13000 | 38.1 | 18500 | 55.1 | 16600 | 49.2 |
| O=C(NCC(F)(F)F)Nc1cccc(-c2cnc3cc(-c4ccc(F)cc4)ccn23)c1 | 1290 | 17.9 | 549 | 14 | 347 | 31.7 | 1660 | > 100 | 622 | 20.8 | 2830 | 33.6 | 733 | > 100 | 1050 | – | 673 | 7.75 | 2690 | 62 |
| CN1Cc2ccccc2/C=C\c2ccccc21 | – | 68.7 | – | > 100 | – | > 100 | – | > 100 | – | > 100 | – | > 100 | – | > 100 | – | > 100 | – | > 100 | – | > 100 |
| O=C1CSC(c2ccccc2Cl)N1c1nnc(Cn2cnnc2)o1 (configuration not stated) | 5770 | 95.5 | 7810 | 21.2 | 5200 | 20.3 | 23900 | > 100 | 4580 | 18.9 | 30200 | > 100 | 8620 | 60.9 | 11400 | > 100 | 17000 | > 100 | 3760 | 31.9 |
| O=[N+]([O-])c1ccc(Cl)c(CNc2ncnc3c2ncn3C2CCCCO2)c1 (configuration not stated) | – | > 100 | – | 52.3 | – | > 100 | – | > 100 | – | > 100 | – | > 100 | – | > 100 | – | > 100 | – | > 100 | – | > 100 |
| C=C1C(O)C2CC(C)(CO)C(=O)C2=C(CC(C)C)C12CC2 (configuration not stated) | 29100 | > 100 | 82800 | > 100 | 50600 | > 100 | > 100000 | > 100 | 77000 | > 100 | 77800 | > 100 | > 100000 | > 100 | 69600 | > 100 | > 100000 | > 100 | > 100000 | > 100 |
| COc1ccc(-c2cncn2-c2cc(OC)c(OC)c(OC)c2)cc1 | 451 | 3.29 | 52.3 | 5.25 | 22.4 | 1.53 | > 36300 | > 100 | 412 | > 46.4 | 1070 | > 51.3 | 123 | > 6.68 | 51 | 1.85 | < 15.7 | 1.53 | 3120 | > 100 |
| CS(=O)(=O)Nc1cccc(-c2ccc3ncnc(Nc4ccc(F)c(Cl)c4)c3c2)c1 | 2070 | 7.59 | 1640 | 3.19 | 2500 | 8.3 | 2420 | > 30.6 | 1550 | 3.34 | 2230 | 8.53 | 1850 | 5.55 | 447 | 19.2 | 1090 | 5.41 | 731 | 5.17 |
| COc1cc(OC)cc(C2C3=C(COC3=O)Nc3cc(OC)ccc32)c1 (configuration not stated) | < 10 | > 43.9 | < 10 | 0.0178 | < 10 | < 0.0106 | < 10 | 37.6 | < 10 | > 43.8 | < 14.3 | > 37.5 | < 10 | > 64.3 | < 10 | > 100 | < 10 | > 94.5 | < 10 | > 100 |
| COC(=O)Nc1nc2ccccc2[nH]1 | – | > 100 | – | > 100 | – | > 100 | – | > 100 | – | > 100 | – | > 89.1 | – | > 95.4 | – | > 100 | – | > 100 | – | > 100 |
| COc1cccc2cc(N(C)c3nc(C)nc4c3CCC4)ccc12 | < 10 | 18.5 | < 10 | 0.0161 | < 10 | 10.7 | < 10.4 | 20 | < 10 | 12.8 | < 10 | 19.2 | < 10 | 30 | < 10 | 18.9 | < 10 | 23.9 | 5380 | 41.8 |
| COc1cc(/C=C/c2ccc(O)c(OC)c2)cc(OC)c1 | – | > 100 | – | 77.7 | – | 96.5 | – | > 100 | – | > 100 | – | > 100 | – | 59.1 | – | > 100 | – | > 100 | – | > 100 |
| O=C(CN(/C=C/C(=O)C(F)(F)F)c1ccc(Cl)cc1)c1ccc(Cl)c(Cl)c1 | 3740 | 17 | 5330 | 20 | 2620 | 10.8 | 8710 | 28.1 | 5370 | 16.8 | 10700 | 28.8 | 16600 | 38.3 | 3610 | 12.7 | 6800 | 22.1 | 10300 | 29.9 |
| CCCCCCCCCCCCC(O)c1ccco1 (configuration not stated) | 21000 | 49.2 | 14800 | 28.2 | 21700 | 48.1 | 29700 | 78.3 | 16200 | 29.7 | 25600 | 52.9 | 16200 | 35.7 | 18000 | 33.4 | 21100 | 42.7 | 35500 | > 100 |

Reference: PubChem BioAssay (NCI)
